Experimental data as given in patent US5266594A, “Inhibitors of nitric oxide synthase and use thereof to prevent glutamate neurotoxicity” (priority 1992, dated 1993).
pEC50: −log10 of the molar value. Entries after “also recorded” stand apart in the source; their conditions may differ. Like-named read-outs stand apart in the source and are kept apart here.

Tested on: cortical cell cultures
Assay: cells
Assay type: cell-based, rat
Details: for pEC50: cortical cultures
Description: Primary dissociated cell cultures were prepared from fetal rats (13-to 14-day gestation for cortex and caudate-putamen cultures and 19- to 20-day gestation for hippocampal cultures). The tissue of interest was dissected, incubated for 15 minutes in 0.027% trypsin in Brooks-Logan solution (5% phosphate-buffered saline/0.04M sucrose/10 mM Hepes/0.03M glucose, pH 7.4), and then transferred to modified Eagle's medium (MEM) 10% horse serum/10% fetal bovine serum/2 mM glutamine for trituration. Dissociated cells were plated at a density of 3-4×10^5 cells per well in polyornithine-coated 15-mm multiwell plates. After 4 days the cells were treated with 10 μg of 5-fluoro-2'-deoxyuridine to prevent proliferations of noneuronal cells. Cells were maintained in MEM/5% horse serum/2 mM glutamine in 8% CO2 /humidified atmosphere at 37° C. The medium was changed twice weekly. Mature neurons (3-4 weeks) were used.
Cells were exposed to excitatory amino acids according to the method of Koh and Choi (J. Neurosci. (1988) 8:2153-2163). Before exposure, the cells were washed three times with Tris-buffered control salt solution (CSS), containing 120 mM NaCl/5.4 mM KCl/1.8 mM CaCl2 /25 mM Tris hydrochloride, pH 7.4 at room temperature/15 mM glucose. Brief exposures to glutamate, NMDA (plus 10 μM glycine), quisqualate, and sodium nitroprusside (SNP) were performed for 5 minutes in CSS. The exposure solution was then washed away and replaced by MEM with 21 mM glucose; then the cells were placed in an incubator for 20-24 hour. Long exposures to kainate were performed in MEM/21 mM glucose for 20-24 hour in the incubator. After exposure to the excitatory amino acids, the medium was replaced by CSS/0.4% trypan blue, which stains nonviable cells. Two to four photographs (10-20×) were made of each well, and viable versus nonviable cells were counted. The cytotoxicity data represent 6-24 separate wells assayed per data point, with ≈500-1500 cells counted per well. Neuronal cell injury was also assessed by measuring the release of lactate dehydrogenase by damaged or destroyed cells into the extracellular fluid following drug exposure.
Before initiating cytotoxicity experiments with NOS inhibitors, the potency of NMDA applied for 5 minutes in inducing cell death was evaluated by examining exclusion of 0.4% trypan blue by viable cells or measuring lactate dehydrogenase released by damaged or destroyed cells into the extracellular fluid.
To examine the role of NO in other forms of glutamate neurotoxicity, the effects of NO2 Arg cytotoxicity induced by quisqualate, kainate, and NMDA were compared. […] Data are means ±SEM (n=6-24). Cell death was determined by 0.4% trypan blue exclusion by viable cells.

N=C(NCCC[C@H](N)C(=O)O)N[N+](=O)[O-] [NO2 Arg, L-N^ω -nitroarginine]
prevention of neurotoxicity, in words: prevent neurotoxicity in proportion to their relative potencies as NOS inhibitors
Cell death, % ± SEM (kainate + NO2 Arg) (100 μM kainate +500 μM NO2 Arg): 87.0 ± 3.2%
Cell death, % ± SEM (NMDA + NO2 Arg) (300 μM NMDA + 10 μM glycine +100 μM NO2 Arg): 17.7 ± 3.0%
Cell death, % ± SEM (NMDA + NO2 Arg + L-Arg) (300 μM NMDA + 10 μM glycine +100 μM NO2 Arg + 1mM L-Arg): 63.4 ± 5.5%
effect on NMDA cytotoxicity (photomicrographs, FIG. 4) (300 μM NMDA plus 10 μM glycine plus 100 NO2 Arg): inhibition of NMDA cytotoxicity
Cell death, % ± SEM (glutamate + NO2 Arg + L-Arg) (500 μM glutamate +100 μM NO2 Arg + 1 Mm L-Arg): 48.2 ± 3.2%
Cell death, % ± SEM (glutamate + NO2 Arg) (500 μM glutamate +100 μN NO2 Arg): 28.9 ± 6.0%
Cell death, % ± SEM (quisqualate + NO2 Arg) (500 μM quisqualate +500 μM NO2 Arg): 51.1 ± 2.4%
Cell death, % ± SEM (quisqualate + NO2 Arg + L-Arg) (500 μM quisqualate +500 μM NO2 Arg + mM L-Arg): 66.6 ± 5.3%
inhibition at 100 µM (Rattus norvegicus, 100 μM NO2 Arg applied simultaneously with NMDA, read-out: reduction of NMDA-induced cell death): 70%
pEC50 (Rattus norvegicus, NMDA and related excitatory amino acids, read-out: EC50 for preventing neurotoxicity elicited by N-methyl-D-aspartate): 4.70
pEC50 (Rattus norvegicus, NMDA, read-out: concentration giving 50% prevention of NMDA-induced cell death): ~4.70
protection against kainate-induced cell death (kainate): no protection against kainate-induced cell death
protection against quisqualate-induced cell death (quisqualate): A portion of cell death elicited by quisqualate is prevented; also recorded: higher concentrations of NO2 Arg are required than with NMDA toxicity
